Measurements taken from patent US10604514B2, “6-(5-membered heteroaryl)isoquinolin-3-yl carboxamides and preparation and use thereof” (Samumed, LLC, priority 2017, dated 2020).
Like-named read-outs stand apart in the source and are kept apart here.

Experiments:
[1] = target: GSK3β kinase (Homo sapiens (Human), UniProt P49841); assay: GSK3β kinase assay (Ser/Thr 09 peptide Z-lyte, FRET); assay type: biochemical; settings: method text calls the value IC50;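 also: Coumarin/fluorescein emission ratio converted to percent phosphorylation against unphosphorylated (0%) and phosphorylated (100%) controls, 1 h compound incubation at room temperature, 11-point threefold dilutions from 10 µM, run in duplicate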
[2] = system: Wnt activity (Sp5-Luc reporter in SW480 colon carcinoma cells); assay: Wnt activity screening assay (Sp5-Luc reporter gene assay); assay type: cell-based, human; settings: Homo sapiens; for EC50: Sp5-Luc reporter, SW480 cells, 36 to 48 hours; for inhibition at 10 µM: SW480, read-out: percent inhibition at 10 μM
Description: The screening assay for Wnt activity is described as follows. Reporter cell lines can be generated by stably transducing cancer cell lines (e.g., colon cancer) or primary cells (e.g., IEC-6 intestinal cells) with a lentiviral construct that includes a Wnt-responsive promoter driving expression of the firefly luciferase gene.
SW480 colon carcinoma cells were transduced with a lentiviral vector expressing luciferase with a human Sp5 promoter consisting of a sequence of eight TCF/LEF binding sites. SW480 cells stably expressing the Sp5-Luc reporter gene and a hygromycin resistance gene were selected by treatment with 150 μg/mL of hygromycin for 7 days. These stably transduced SW480 cells were expanded in cell culture and used for all further screening activities. Each compound was dissolved in DMSO as a 10 mM stock and used to prepare compound source plates. Serial dilution (1:3, 10-point dose-response curves starting from 10 μM) and compound transfer was performed using the ECHO 550 (Labcyte, Sunnyvale, Calif.) into 384-well white solid bottom assay plates (Greiner Bio-One) with appropriate DMSO backfill for a final DMSO concentration of 0.1%. For Sp5-Luc reporter gene assays, the cells were plated at 4,000 cells/well in 384-well plates with a DMEM medium containing 1% fetal bovine serum, and 1% Penicillin-Streptomycin and incubated for 36 to 48 hours at 37° C. and 5% CO2. Following incubation, 15 μl of BriteLite Plus luminescence reagent (Perkin Elmer) was added to each well of the 384-well assay plates. The plates were placed on an orbital shaker for 2 min and then luminescence was quantified using the Envision (Perkin Elmer) plate reader. Readings were normalized to DMSO only treated cells, and normalized activities were utilized for EC50 calculations using the dose-response log (inhibitor) vs. response -variable slope (four parameters) nonlinear regression feature available in GraphPad Prism 5.0 (or Dotmatics).

[3] = target: DYRK1A kinase (Homo sapiens (Human), UniProt Q13627); assay: DYRK1A kinase assay (Ser/Thr 18 peptide Z-lyte, FRET)
[4] = system: LL29 cells (primary human fibroblasts derived from IPF patients), α-smooth muscle actin; assay: Inhibition of fibrotic process: αSMA in TGF-β1-treated primary human fibroblasts from IPF patients (LL29 cells); assay type: cell-based; settings: Homo sapiens, Fibroblast; for EC50: 96 h, % αSMA-positive LL29 cells, TGF-β1 20 ng/mL, 4 days; for inhibition at 10 µM: read-out: percent inhibition at 10 μM
Description: Representative compounds were screened using primary human fibroblasts (derived from IPF patients) treated with TGF-β1 to determine their ability to inhibit the fibrotic process.
Primary human fibroblasts derived from IPF patients (LL29 cells) [^1Xiaoqiu Liu, et. al., “Fibrotic Lung Fibroblasts Show Blunted Inhibition by cAMP Due to Deficient cAMP Response Element-Binding Protein Phosphorylation”, Journal of Pharmacology and Experimental Therapeutics (2005), 315(2), 678-687; ^2Watts, K. L., et. al., “RhoA signaling modulates cyclin D1 expression in human lung fibroblasts; implications for idiopathic pulmonary fibrosis”, Respiratory Research (2006), 7(1), 88] were obtained from American Type Culture Collection (ATCC) and expanded in F12 medium supplemented with 15% Fetal Bovine Serum and 1% Penicillin/Streptomycin.
Each compound was dissolved in DMSO as a 10 mM stock and used to prepare compound source plates. Serial dilution (1:2, 11-point dose-response curves from […] to 0.94 nM) and compound transfer was performed using the ECHO 550 (Labcyte, Sunnyvale, Calif.) into 384-well clear bottom assay plates (Greiner Bio-One) with appropriate DMSO backfill for a final DMSO concentration of 0.1%. LL29 cells were plated at 1,500 cells/well in 70 μL/well F12 medium supplemented with 1% Fetal Bovine Serum. TGF-β1 (Peprotech; 20 ng/mL) was added to the plates to induce fibrosis (ref. 1 and 2 above). Wells treated with TGF-31 and containing DMSO were used as positive control, and cells with only DMSO were negative control. Cells were incubated at 37° C. and 5% CO2 for 4 days. Following incubation for 4 days, SYTOX green nucleic acid stain (Life Technologies [Thermo Fisher Scientific]) was added to the wells at a final concentration of 1 μM and incubated at room temperature for 30 min. Cells were then fixed using 4% formaldehyde (Electron Microscopy Sciences), washed 3 times with PBS followed by blocking and permeabilization using 3% Bovine Serum Albumin (BSA; Sigma) and 0.3% Triton X-100 (Sigma) in PBS. Cells were then stained with antibody specific to α-smooth muscle actin (αSMA; Abcam) (ref. 1 and 2 above) in 3% Bovine Serum Albumin (BSA; Sigma) and 0.3% Triton X-100 (Sigma) in PBS, and incubated overnight at 4° C. Cells were then washed 3 times with PBS, followed by incubation with Alexa Flor-647 conjugated secondary antibody (Life Technologies [Thermo Fisher Scientific]) and DAPI in 3% Bovine Serum Albumin (BSA; Sigma) and 0.3% Triton X-100 (Sigma) in PBS at room temperature for 1 hour. Cells were then washed 3 times with PBS and plates were sealed for imaging. αSMA staining was imaged by excitation at 630 nm and emission at 665 nm and quantified using the Compartmental Analysis program on the CellInsight CX5 (Thermo Scientific). Dead or apoptotic cells were excluded from analysis based on positive SYTOX green staining. % of total cells positive for αSMA were counted in each well and normalized to the average of 11 wells treated with TGF-β1 on the same plate using Dotmatics' Studies Software.

[5] = system: Tau phosphorylation at Ser396 (pSer396), SH-SY5Y cells; assay: Tau phosphorylation at Ser396 (pSer396) in SH-SY5Y cells, ELISA/western blot; assay type: cell-based, human; settings: Homo sapiens; SH-SY5Y cells, overnight (16-18 h); read-out: pSer396 Tau EC50;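 also: cell lysates probed for reduced Tau pSer396 via ELISA (colorimetric) or western blot (chemiluminescence), both with one shared pSer396 antibody, EC50 for lowering phosphorylation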
[6] = system: SW480 colon carcinoma cells; assay: Cell viability assay (CellTiter-Glo) in SW480 cells; assay type: cell-based, human; settings: Homo sapiens; for EC50: 96 h, cell viability, SW480 cells, four days, CellTiter-Glo; for inhibition at 10 µM: SW480, read-out: percent inhibition at 10 μM;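 as to all read-outs here: SW480 cells stably carrying an Sp5-luciferase TCF/LEF reporter, luminescent ATP signal as viability measure, DMSO-treated cells as control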
[7] = system: IL-6; assay: IL-6 inhibition in LPS-stimulated human peripheral blood mononuclear cells (HTRF); assay type: cell-based; settings: Homo sapiens, PBMC; for EC50: IL-6, LPS-stimulated huPBMCs, HTRF
Method: Fresh Normal PB MNC (Catalog # PB001, AllCells, Alameda, Calif.) were shipped overnight at 4° C. and resuspended in Roswell Park Memorial Institute (RPMI) 1640 Medium, with GlutaMAX Supplement (Catalog #61870127, ThermoFisher Scientific, Waltham, Mass.) supplemented with 1% Penicillin-Streptomycin (Catalog #151401633 ThermoFisher Scientific, Waltham, Mass.) and 1% fetal bovine serum (FBS) (Catalog #16140089, ThermoFisher Scientific, Waltham, Mass.) assay media.
Fresh normal human peripheral blood mononuclear cells (huPBMCs) were resuspended in 1% FBS-RPMI assay media with 1% Penicillin-Streptomycin 1% to a cell concentration of 1×10e6 cells/mL. Each compound was dissolved in DMSO (Catalog # D8418-100 ml, Sigma-Aldrich, St. Louis, Mo.) as a 10 mM stock and used to prepare compound source plates. Serial dilution (1:3, 10-point dose-response curves starting from 10 μM) and compound transfer was performed using the ECHO 550 (Labcyte, Sunnyvale, Calif.) into 384-well white Proxiplate-Plus assay plates (Catalog #6008289, PerkinElmer, Shelton, Conn.) with appropriate DMSO backfill for a final DMSO concentration of 0.25%. huPBMCs were plated at 5000 cells/well in the 384-well Proxiplate-Plus assay plates and incubated at 37° C.-5% CO2 for 2 hours. 50 ng/mL of Lipopolysaccharides from Escherichia coli 0111:B4 (Catalog # L5293-2 ML, Sigma-Aldrich, St. Louis, Mo.) was added after 2 hours and cells were incubated for another 22 hours at 37° C.-5% CO2. After 22 hour incubation, a mixture of anti-IL6 XL665 and anti-IL-6 Cryptate diluted in reconstitution buffer (Catalog #62IL6PEC, Cisbio Inc., Bedford, Mass.) was added to each well. Following incubation for 3 hours at room temperature, Homogeneous Time-Resolved Fluorescence (HTRF) was measured using the Envision (Perkin Elmer, Shelton, Conn.) at 665 nm and […]. The ratio of fluorescence at 665 nm to 620 nm was used as a readout for IL-6 quantification. All samples were processed in duplicate. Readings were normalized to DMSO treated cells and normalized activities were utilized for EC50 calculations. EC50 was determined using software generated by Dotmatics Limited (Windhill Bishops Stortford Herts, UK) using the Levenberg-Marquardt 4 parameter fitting procedure with finite different gradients.

[8] = DYRK1A kinase, method text calls the value IC50

GSK3β kinase, sequence (P49841 whole entry): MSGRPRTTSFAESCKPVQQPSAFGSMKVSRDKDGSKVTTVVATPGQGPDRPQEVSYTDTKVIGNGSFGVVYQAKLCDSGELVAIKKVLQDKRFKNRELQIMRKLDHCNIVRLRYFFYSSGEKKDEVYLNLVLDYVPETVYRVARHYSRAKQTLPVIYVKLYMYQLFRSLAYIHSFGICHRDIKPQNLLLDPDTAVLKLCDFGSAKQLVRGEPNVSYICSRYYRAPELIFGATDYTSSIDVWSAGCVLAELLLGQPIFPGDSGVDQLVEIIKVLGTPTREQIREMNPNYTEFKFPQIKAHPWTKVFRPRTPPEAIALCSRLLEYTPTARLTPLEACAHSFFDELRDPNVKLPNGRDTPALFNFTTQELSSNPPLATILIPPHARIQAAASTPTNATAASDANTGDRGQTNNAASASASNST

`Cn1cc(-c2cc(F)c3cnc(NC(=O)[C@H]4CC[C@H](N(C)C)CC4)cc3c2)cn1` [Compound 1, trans-4-(Dimethylamino)-N-(8-fluoro-6-(1-methyl-1H-pyrazol-4-yl)isoquinolin-3-yl)cyclohexane-1-carboxamide] was tested, and the EC50 [1] was 107 nM, the EC50 [2] was 239 nM and the EC50 [3, 8] was 4 nM. For the same compound, the EC50 [4] was 445 nM, the EC50 [5] was 368 nM and the EC50 [6] was 839 nM. For the same compound, the EC50 [7] was 3040 nM.

Compound `Cn1cc(-c2cc3cc(NC(=O)[C@H]4CC[C@H](N(C)C)CC4)ncc3cc2F)cn1` [Compound 2, trans-4-(Dimethylamino)-N-(7-fluoro-6-(1-methyl-1H-pyrazol-4-yl)isoquinolin-3-yl)cyclohexane-1-carboxamide] has an EC50 [1] of 246 nM, an EC50 [2] of 799 nM and an EC50 [3, 8] of 4 nM. For the same compound, the EC50 [4] was 150 nM, the EC50 [5] was 559 nM and the EC50 [6] was 4450 nM. For the same compound, the EC50 [7] was 1280 nM.

In the case of `Cn1cc(-c2cc(F)c3cnc(NC(=O)[C@H]4CC[C@H](N5CCOCC5)CC4)cc3c2)cn1` [Compound 3, trans-N-(8-Fluoro-6-(1-methyl-1H-pyrazol-4-yl)isoquinolin-3-yl)-4-morpholinocyclohexane-1-carboxamide], the EC50 [1] is reported as 131 nM, the EC50 [2] is reported as 1860 nM and the EC50 [3, 8] is reported as 4 nM. It also gave an EC50 [4] of 153 nM, an EC50 [5] of 458 nM and an EC50 [6] of 6670 nM. It also gave an EC50 [7] of 1120 nM.

With `CC(C)CN1CCC(CC(=O)Nc2cc3cc(-c4cnn(C)c4)ccc3cn2)C1` (stereo not shown) [Compound 4, 2-(1-Isobutylpyrrolidin-3-yl)-N-(6-(1-methyl-1H-pyrazol-4-yl)isoquinolin-3-yl)acetamide] the EC50 [1] was 22 nM, the EC50 [2] was 730 nM and the EC50 [3, 8] was 4 nM. The EC50 [4] was 229 nM, the EC50 [5] was 69 nM and the EC50 [6] was 907 nM. The EC50 [7] was 489 nM.

For `CC(C)CN1CCC(C(=O)Nc2cc3cc(-c4ccn(C)n4)ccc3cn2)CC1` [Compound 7, 1-Isobutyl-N-(6-(1-methyl-1H-pyrazol-3-yl)isoquinolin-3-yl)piperidine-4-carboxamide], the EC50 [1] was 1900 nM, the inhibition at 10 µM [2] was 32.9% and the EC50 [2] was > 10000 nM. For the same compound, the EC50 [3, 8] was 376 nM, the EC50 [4] was 2660 nM and the EC50 [6] was > 10000 nM. It also gave an inhibition at 10 µM [6] of 42.5% and an EC50 [7] of 9420 nM.

In the case of `Cc1ncc(-c2cc(F)c3cnc(NC(=O)[C@H]4CC[C@H](N5CCOCC5)CC4)cc3c2)o1` [Compound 19, trans-N-(8-Fluoro-6-(2-methyloxazol-5-yl)isoquinolin-3-yl)-4-morpholinocyclohexane-1-carboxamide], the EC50 [1] is reported as 1160 nM, the inhibition at 10 µM [2] is reported as 22.4% and the EC50 [2] is reported as > 10000 nM. The EC50 [3, 8] was 110 nM, the EC50 [4] was > 10000 nM and the inhibition at 10 µM [4] was 20.6%. For the same compound, the EC50 [6] was > 10000 nM, the inhibition at 10 µM [6] was 44.8% and the EC50 [7] was 3220 nM.

For `Cc1ncc(-c2ccc3cnc(NC(=O)[C@H]4CC[C@H](N(C)C)CC4)cc3c2)o1` [Compound 45, trans-4-(Dimethylamino)-N-(6-(2-methyloxazol-5-yl)isoquinolin-3-yl) cyclohexane-1-carboxamide], the EC50 [2] was 1860 nM, the EC50 [3, 8] was 3 nM and the EC50 [4] was 95 nM. The EC50 [5] was 320 nM.

With `[2H]c1c([2H])c(C(=O)Nc2cc3cc(-c4cncn4C)ccc3cn2)c([2H])c([2H])c1F` [Compound 81, 4-Fluoro-N-(6-(1-methyl-1H-imidazol-5-yl)isoquinolin-3-yl)benzamide-2,3,5,6-d4] the inhibition at 10 µM [2] was 36.3%, the EC50 [2] was > 10000 nM and the EC50 [4] was 309 nM. It also gave an EC50 [5] of 2830 nM, an EC50 [6] of 486 nM and an EC50 [7] of 1120 nM.

For `Cn1cc(-c2ccc3cnc(NC(=O)c4ccnc(N5CC[N+](C)([O-])CC5)c4)cc3c2)nn1` [Compound 224, 1-methyl-4-(4-((6-(1-methyl-1H-1,2,3-triazol-4-yl)isoquinolin-3-yl)carbamoyl)pyridin-2-yl)piperazine 1-oxide], the EC50 [1] was 703 nM, the inhibition at 10 µM [2] was 43.8% and the EC50 [2] was > 10000 nM. For the same compound, the EC50 [3] was 1 nM, the EC50 [4] was > 10000 nM and the inhibition at 10 µM [4] was 13.1%. For the same compound, the EC50 [6] was > 10000 nM, the inhibition at 10 µM [6] was 24.6% and the inhibition at 10 µM ([7]; read-out: percent value in parentheses below EC50 >10) was 13.7%. For the same compound, the EC50 [7] was > 10000 nM.

In the case of `Cc1ncc(-c2cc(F)c3cnc(NC(=O)N(C)C4CCN(C)CC4)cc3c2)o1` [Compound 229, 3-(8-Fluoro-6-(2-methyloxazol-5-yl)isoquinolin-3-yl)-1-methyl-1-(1-methylpiperidin-4-yl)urea], the EC50 [1] is reported as 6710 nM, the inhibition at 10 µM [2] is reported as 0% and the EC50 [2] is reported as > 10000 nM. For the same compound, the EC50 [3, 8] was 1000 nM, the EC50 [4] was 9980 nM and the EC50 [6] was > 10000 nM. The inhibition at 10 µM [6] was 49.5% and the EC50 [7] was 8960 nM.
